Experimental data as given in patent US10722514B2 (FLX Bio, Inc., priority 2017, dated 2020).
Structures can show the parent of a compound that is named as a salt.

What follows are molecules tested against T1, recombinant full-length USP7 (Homo sapiens, UniProt Q93009) (assay: USP7-mediated ubiquitin-rhodamine cleavage assay). Conditions: recombinant full-length USP7 62 pM; ubiquitin-rhodamine 100 nM; 30-minute incubation with compound, 1 hour reaction at room temperature; read-out: Potency: USP7 IC50.
T1 construct: A 25 μl reaction volume containing recombinant full-length USP7 (62 pM)
Format: biochemical
Procedure, shortened: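 After compound and enzyme (62 pM) sat together 30 min at RT, 100 nM fluorogenic ubiquitin-rhodamine substrate was added for 1 h protected from light. Acetic acid quenched the reaction prior to the fluorescence read.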

T1 sequence (Q93009 whole entry): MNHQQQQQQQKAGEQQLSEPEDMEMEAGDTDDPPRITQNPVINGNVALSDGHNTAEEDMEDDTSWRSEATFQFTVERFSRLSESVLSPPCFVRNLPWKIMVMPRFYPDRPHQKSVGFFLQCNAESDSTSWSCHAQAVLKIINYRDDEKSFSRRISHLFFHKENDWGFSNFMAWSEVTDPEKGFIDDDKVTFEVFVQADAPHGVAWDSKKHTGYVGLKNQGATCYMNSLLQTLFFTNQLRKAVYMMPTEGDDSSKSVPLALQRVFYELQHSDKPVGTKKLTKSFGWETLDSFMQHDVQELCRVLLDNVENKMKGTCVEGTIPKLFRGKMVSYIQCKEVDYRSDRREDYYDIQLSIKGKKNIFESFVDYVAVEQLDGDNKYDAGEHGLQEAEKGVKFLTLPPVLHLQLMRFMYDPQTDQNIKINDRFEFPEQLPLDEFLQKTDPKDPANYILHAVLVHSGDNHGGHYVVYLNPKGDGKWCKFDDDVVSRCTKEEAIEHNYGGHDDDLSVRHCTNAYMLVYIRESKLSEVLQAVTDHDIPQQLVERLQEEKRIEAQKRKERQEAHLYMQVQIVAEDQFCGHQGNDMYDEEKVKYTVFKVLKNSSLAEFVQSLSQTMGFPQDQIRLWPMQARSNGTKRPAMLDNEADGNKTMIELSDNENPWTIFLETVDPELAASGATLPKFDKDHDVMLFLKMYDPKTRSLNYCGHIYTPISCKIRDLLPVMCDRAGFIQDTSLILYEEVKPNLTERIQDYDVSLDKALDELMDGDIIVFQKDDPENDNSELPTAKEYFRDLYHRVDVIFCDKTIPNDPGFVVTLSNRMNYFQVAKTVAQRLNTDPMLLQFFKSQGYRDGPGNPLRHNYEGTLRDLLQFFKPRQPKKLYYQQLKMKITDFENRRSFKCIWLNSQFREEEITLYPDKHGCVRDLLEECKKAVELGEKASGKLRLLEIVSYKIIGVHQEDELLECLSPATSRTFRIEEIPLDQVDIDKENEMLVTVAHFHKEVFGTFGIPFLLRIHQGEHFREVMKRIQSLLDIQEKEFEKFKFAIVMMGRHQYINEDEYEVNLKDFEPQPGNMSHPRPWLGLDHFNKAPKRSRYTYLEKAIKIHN

| IC50 [µM] | SMILES |
| --- | --- |
| < 1 | Cc1cc(Cl)cc(-c2ccnc3cc(CN4C(=O)C5C(C4=O)C5(C)C)sc23)c1O[C@@H]1C[C@H]2CN[C@@H]1C2 (stereo partly drawn) [Example 331, 3-[[7-[2-[[(1S,4R,5R)-3-azabicyclo[2.2.1]heptan-5-yl]oxy]-5-chloro-3-methyl-phenyl]thieno[3,2-b]pyridin-2-yl]methyl]-6,6-dimethyl-3-azabicyclo[3.1.0]hexane-2,4-dione] |
| 1 to 10 | CCC(O)c1cc2ncnc(-c3cc(Cl)cc(C)c3O[C@H]3CCCNC3)c2s1 (stereo partly drawn) [Example 174, 1-(4-(5-Chloro-3-methyl-2-(((S)-piperidin-3-yl)oxy)phenyl)thieno[3,2-d]pyrimidin-6-yl)propan-1-ol] |
| < 1 | Cc1cc(Cl)cc(-c2ccnc3cc(CN4C(=O)C5CC5C4=O)sc23)c1O[C@H]1CCCNC1 (stereo partly drawn) [Example 244, 3-((7-(5-Chloro-3-methyl-2-(((S)-piperidin-3-yl)oxy)phenyl)thieno[3,2-b]pyridin-2-yl)methyl)-3-azabicyclo[3.1.0]hexane-2,4-dione] |
| < 1 | Cc1cc(Cl)cc(-c2ncnc3cc(CN4C(=O)C5C(C4=O)C5(C)C)sc23)c1O[C@@H]1CN(C)C[C@@H]1F (stereo partly drawn) [Example 348, 3-[[4-[5-chloro-2-[(3R,4S)-4-fluoro-1-methyl-pyrrolidin-3-yl]oxy-3-methyl-phenyl]thieno[3,2-d]pyrimidin-6-yl]methyl]-6,6-dimethyl-3-azabicyclo[3.1.0]hexane-2,4-dione dihydrochloride] |
| 1 to 10 | CC(=O)N[C@H]1CNC[C@H]1Oc1c(C)cc(Cl)cc1-c1ccnc2cc(CN3C(=O)CCC3=O)sc12 [Example 85, N-((3S,4R)-4-(4-Chloro-2-(2-((2,5-dioxopyrrolidin-1-yl)methyl)thieno[3,2-b]pyridin-7-yl)-6-methylphenoxy)pyrrolidin-3-yl)acetamide] |
| < 1 | Cc1cc(C#N)cc(-c2ccnc3cc(CN4C(=O)C5C6CCC(C6)C5C4=O)sc23)c1O[C@@H]1CNC[C@@H]1F (stereo partly drawn) [Example 112, 3-(2-((1,3-Dioxooctahydro-2H-4,7-methanoisoindol-2-yl)methyl)thieno[3,2-b]pyridin-7-yl)-4-(((3R,4S)-4-fluoropyrrolidin-3-yl)oxy)-5-methylbenzonitrile] |
| 1 to 10 | Cc1cc(Cl)cc(-c2ccnc3cc(CO)sc23)c1OCC1(F)CNC1 [Example 20, (7-(5-Chloro-2-((3-fluoroazetidin-3-yl)methoxy)-3-methylphenyl)thieno[3,2-b]pyridin-2-yl)methanol] |
| 10 to 30 | Cc1cc(Cl)cc(-c2ccnc3cc(CO)sc23)c1O[C@H]1CNC[C@H]1F [Example 67, (7-(5-Chloro-2-(((3S,4R)-4-fluoropyrrolidin-3-yl)oxy)-3-methylphenyl)thieno[3,2-b]pyridin-2-yl)methanol] |
| < 1 | Cc1cc(Cl)cc(-c2ccnc3cc(CN4C(=O)CCC4=O)sc23)c1OCC12CNCC1C2 (centres unmarked) [Example 52, 1-((7-(2-((3-Azabicyclo[3.1.0]hexan-1-yl)methoxy)-5-chloro-3-methylphenyl)thieno[3,2-b]pyridin-2-yl)methyl)pyrrolidine-2,5-dione] |
| < 1 | Cc1cc(Cl)cc(-c2ccnc3cc(CN4C(=O)C5C(C4=O)C5(C)C)sc23)c1O[C@@H]1CCNC[C@@H]1F (stereo partly drawn) [Example 391, 3-[[7-[5-chloro-2-[[(3S,4R)-3-fluoro-4-piperidyl]oxy]-3-methyl-phenyl]thieno[3,2-b]pyridin-2-yl]methyl]-6,6-dimethyl-3-azabicyclo[3.1.0]hexane-2,4-dione; 2,2,2-trifluoroacetic acid] |
| < 1 | CCN1CC(Oc2c(C)cc(Cl)cc2-c2ccnc3cc(CN4C(=O)C5C(C4=O)C5(C)C)sc23)C(C)(F)C1 (centres unmarked) [Example 374, 3-[[7-[5-chloro-2-(1-ethyl-4-fluoro-4-methyl-pyrrolidin-3-yl)oxy-3-methyl-phenyl]thieno[3,2-b]pyridin-2-yl]methyl]-6,6-dimethyl-3-azabicyclo[3.1.0]hexane-2,4-dione dihydrochloride] |
| < 1 | C[C@H]1CNCC[C@H]1Oc1ccccc1-c1ccnc2cc(Cn3c(=O)ccn(CC(F)(F)F)c3=O)sc12 [Example 292, 3-[[7-[2-[[(3S,4R)-3-methyl-4-piperidyl]oxy]phenyl]thieno[3,2-b]pyridin-2-yl]methyl]-1-(2,2,2-trifluoroethyl)pyrimidine-2,4-dione] |
| < 1 | Cc1cc(Cl)cc(-c2ccnc3cc(Cn4c(=O)ccn(CC(F)F)c4=O)sc23)c1O[C@H]1CCCNC1 [Example 284, 3-[[7-[5-chloro-3-methyl-2-[[(3S)-3-piperidyl]oxy]phenyl]thieno[3,2-b]pyridin-2-yl]methyl]-1-(2,2-difluoroethyl)pyrimidine-2,4-dione; 2,2,2-trifluoroacetic acid] |

Same assay, conditions: recombinant full-length USP7 62 pM; ubiquitin-rhodamine 100 nM; 30-minute incubation, 1 hour reaction at room temperature; read-out: Potency (USP7 IC50)

| IC50 [µM] | SMILES |
| --- | --- |
| < 1 | Cc1cc(Cl)cc(-c2ccnc3cc(Cn4c(=O)ccn(CC(F)(F)F)c4=O)sc23)c1OC1CCS(=O)(=O)CC1 [Example 680, 3-[[7-[5-chloro-2-(1,1-dioxoothian-4-yl)oxy-3-methyl-phenyl]thieno[3,2-b]pyridin-2-yl]methyl]-1-(2,2,2-trifluoroethyl)pyrimidine-2,4-dione] |

Same assay, conditions: recombinant full-length USP7 62 pM; ubiquitin-rhodamine 100 nM; 30-minute pre-incubation, 1 hour reaction at room temperature; read-out: Potency (USP7 IC50)

| IC50 [µM] | SMILES |
| --- | --- |
| < 1 | Cc1cc(Cl)cc(-c2ncnc3cc(Cn4c(=O)ccn(CC(F)(F)F)c4=O)sc23)c1O[C@@H]1CCNC[C@@H]1C [Example 584, 3-[[4-[5-chloro-3-methyl-2-[[(3S,4R)-3-methyl-4-piperidyl]oxy]phenyl]thieno[3,2-d]pyrimidin-6-yl]methyl]-1-(2,2,2-trifluoroethyl)pyrimidine-2,4-dione] |
| < 1 | Cc1cc(Cl)cc(-c2ncnc3cc(Cn4c(=O)ccn(CC(F)(F)F)c4=O)sc23)c1O[C@@H]1CCNC[C@@H]1C [Example 520, 3-[[4-[5-chloro-3-methyl-2-[[(3S,4R)-3-methyl-4-piperidyl]oxy]phenyl]thieno[3,2-d]pyrimidin-6-yl]methyl]-1-(2,2,2-trifluoroethyl)pyrimidine-2,4-dione] |
| < 1 | Cc1cc(Cl)cc(-c2ncnc3cc(Cn4c(=O)ccn(CC(F)(F)F)c4=O)sc23)c1O[C@H]1CC[C@H](C)NC1 [Example 562, 3-[[4-[5-chloro-3-methyl-2-[[(3S,6S)-6-methyl-3-piperidyl]oxy]phenyl]thieno[3,2-d]pyrimidin-6-yl]methyl]-1-(2,2,2-trifluoroethyl)pyrimidine-2,4-dione; 2,2,2-trifluoroacetic acid] |
| < 1 | Cc1cc(Cl)cc(-c2ccnc3cc(Cn4c(=O)ccn(C)c4=O)sc23)c1OC1CCCN(C)C1 (centres unmarked) [Example 503, 3-[[7-[5-chloro-3-methyl-2-[(1-methyl-3-piperidyl)oxy]phenyl]thieno[3,2-b]pyridin-2-yl]methyl]-1-methyl-pyrimidine-2,4-dione] |
| < 1 | COCCN1CC[C@@H](Oc2c(C)cc(Cl)cc2-c2ccnc3cc(Cn4c(=O)ccn(CC(F)(F)F)c4=O)sc23)[C@H](C)C1 [Example 654, 3-[[7-[5-chloro-2-[[(3R,4R)-1-(2-methoxyethyl)-3-methyl-4-piperidyl]oxy]-3-methyl-phenyl]thieno[3,2-b]pyridin-2-yl]methyl]-1-(2,2,2-trifluoroethyl)pyrimidine-2,4-dione] |
| < 1 | Cc1cc(Cl)cc(-c2ccnc3cc(CN4C(=O)CCC4=O)sc23)c1O[C@H]1CNCC[C@@H]1F [Example 425, 1-[[7-[5-chloro-2-[[(3S,4S)-4-fluoro-3-piperidyl]oxy]-3-methyl-phenyl]thieno[3,2-b]pyridin-2-yl]methyl]pyrrolidine-2,5-dione] |
| < 1 | Cc1cc(Cl)cc(-c2ccnc3cc(Cn4c(=O)ccn(C)c4=O)sc23)c1O[C@@H]1C[C@H]2COCCN2C1 [Example 501, 3-[[7-[2-[[(7R,8aS)-3,4,6,7,8,8a-hexahydro-1H-pyrrolo[2,1-c][1,4]oxazin-7-yl]oxy]-5-chloro-3-methyl-phenyl]thieno[3,2-b]pyridin-2-yl]methyl]-1-methyl-pyrimidine-2,4-dione] |

| SMILES | IC50 [µM] |
| --- | --- |
| Cc1cc(Cl)cc(-c2ccnc3cc(Cn4c(=O)ccn(CC(F)(F)F)c4=O)sc23)c1OC1CN2CCC1CC2 (centres unmarked) [Example 594, 3-[[7-(5-chloro-3-methyl-2-quinuclidin-3-yloxy-phenyl)thieno[3,2-b]pyridin-2-yl]methyl]-1-(2,2,2-trifluoroethyl)pyrimidine-2,4-dione; 2,2,2-trifluoroacetic acid] | < 1 |
| Cc1cc(Cl)cc(-c2ccnc3cc(CN4C(=O)CCC4=O)sc23)c1OC1CC(N)C1 (centres unmarked) [Example 437, 1-[[7-[2-(3-aminocyclobutyoxy)-5-chloro-3-methyl-phenyl]thieno[3,2-b]pyridin-2-yl]methyl]pyrrolidine-2,5-dione; 2,2,2-trifluoroacetic acid] | < 1 |
| Cc1cc(Cl)cc(-c2ccnc3cc(Cn4c(=O)ccn(CC(F)(F)F)c4=O)sc23)c1OC1CC(N2CCOC[C@@H]2C)C1 (stereo partly drawn) [Example 658, 3-[[7-[5-chloro-3-methyl-2-[3-[(3S)-3-methylmorpholin-4-yl]cyclobutoxy]phenyl]thieno[3,2-b]pyridin-2-yl]methyl]-1-(2,2,2-trifluoroethyl)pyrimidine-2,4-dione; 2,2,2-trifluoroacetic acid] | < 1 |
| Cc1cc(Cl)cc(-c2ccnc3cc(Cn4c(=O)ccn(CC(F)(F)F)c4=O)sc23)c1OCCN [Example 576, 3-[[7-[2-(2-aminoethoxy)-5-chloro-3-methyl-phenyl]thhieno[3,2-b]pyridin-2-yl]methyl]-1-(2,2,2-trifluoroethyl)pyrimidine-2,4-dione; 2,2,2-trifluoroacetic acid] | < 1 |
| Cc1cc(Cl)cc(-c2ccnc3cc(Cn4c(=O)ccn(C)c4=O)sc23)c1O[C@H]1CCN(C)C(C)(C)C1 [Example 490] | < 1 |
